According to publication PMC8037182, “Solvothermal Synthesis of Multiple Dihydropyrimidinones at a Time as Inhibitors of Eg5” (Molecules, 2021):

Key:
[1] = tested on: Hela cell line; assay: Cytotoxicity MTS assay, Hela cell line; format: cell-based; details: for OD490 Mean / OD490 Well 1 / OD490 Well 2 / OD490 Well 3: Hela cell line
Method in brief: (§1)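 Cells seeded at 1000 per well, grown 24 h, then exposed to compound (0.5–100 µM final) for 24 h with 0.025% DMSO blank. MTS reagent added for 2 h at 37 °C, absorbance read at 490 nm; IC50 from non-linear regression of % viability versus concentration, three independent duplicate experiments.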

[2] = tested on: Caco-2 cell line; assay: Cytotoxicity MTS assay, Caco-2 cell line; format: cell-based; details: for OD490 Mean / OD490 Well 1 / OD490 Well 2 / OD490 Well 3: Caco-2 cell line
Method in brief: as §1

## COC(=O)c1[nH]c(C2NC(=S)NC(C)=C2C(=O)c2ccccc2)c(C(=O)OC)c1C (stereo not shown) [D14]
[1]; 0.5μM, first assay
  OD490 Mean: 2.3692
  OD490 Well 1: 2.2024
  OD490 Well 2: 2.5165
  OD490 Well 3: 2.3887
[1]; 0.5μM, second assay
  OD490 Mean: 2.4577
  OD490 Well 1: 2.5398
  OD490 Well 2: 2.4478
  OD490 Well 3: 2.3854
[1]; 0.5μM, third assay
  OD490 Mean: 2.5210
  OD490 Well 1: 2.5365
  OD490 Well 2: 2.6899
  OD490 Well 3: 2.3365
[1]; 1μM, first assay
  OD490 Mean: 2.4838
  OD490 Well 1: 2.3561
  OD490 Well 2: 2.5456
  OD490 Well 3: 2.5498
[1]; 1μM, second assay
  OD490 Mean: 2.4907
  OD490 Well 1: 2.5353
  OD490 Well 2: 2.4889
  OD490 Well 3: 2.4478
[1]; 1μM, third assay
  OD490 Mean: 2.5269
  OD490 Well 1: 2.4563
  OD490 Well 2: 2.5587
  OD490 Well 3: 2.5656
[1]; 10μM, first assay
  OD490 Mean: 2.5226
  OD490 Well 1: 2.5006
  OD490 Well 2: 2.6290
  OD490 Well 3: 2.4381
[1]; 10μM, second assay
  OD490 Mean: 2.5413
  OD490 Well 1: 2.4987
  OD490 Well 2: 2.5687
  OD490 Well 3: 2.5565
[1]; 10μM, third assay
  OD490 Mean: 2.5164
  OD490 Well 1: 2.5321
  OD490 Well 2: 2.4598
  OD490 Well 3: 2.5574
[1]; 25μM, first assay
  OD490 Mean: 2.4708
  OD490 Well 1: 2.2633
  OD490 Well 2: 2.6154
  OD490 Well 3: 2.5338
[1]; 25μM, second assay
  OD490 Mean: 2.5615
  OD490 Well 1: 2.5835
  OD490 Well 2: 2.5478
  OD490 Well 3: 2.5532
[1]; 25μM, third assay
  OD490 Mean: 2.4824
  OD490 Well 1: 2.3365
  OD490 Well 2: 2.4587
  OD490 Well 3: 2.6521
[1]; 50μM, first assay
  OD490 Mean: 2.7660
  OD490 Well 1: 2.6176
  OD490 Well 2: 2.8052
  OD490 Well 3: 2.8752
[1]; 50μM, second assay
  OD490 Mean: 2.6584
  OD490 Well 1: 2.6324
  OD490 Well 2: 2.5687
  OD490 Well 3: 2.7741
[1]; 50μM, third assay
  OD490 Mean: 2.5680
  OD490 Well 1: 2.5574
  OD490 Well 2: 2.4768
  OD490 Well 3: 2.6698
[1]; 100μM, first assay
  OD490 Mean: 2.5211
  OD490 Well 1: 2.7163
  OD490 Well 2: 2.4550
  OD490 Well 3: 2.3919
[1]; 100μM, second assay
  OD490 Mean: 2.5251
  OD490 Well 1: 2.6987
  OD490 Well 2: 2.4465
  OD490 Well 3: 2.4301
[1]; 100μM, third assay
  OD490 Mean: 2.6068
  OD490 Well 1: 2.6689
  OD490 Well 2: 2.5641
  OD490 Well 3: 2.5874
[1]; MTS assay, 24 h exposure
  IC50: > 150 µM
[2]; 0.5μM, first assay
  OD490 Mean: 0.5996
  OD490 Well 1: 0.5553
  OD490 Well 2: 0.5560
  OD490 Well 3: 0.6875
[2]; 0.5μM, second assay
  OD490 Mean: 0.6725
  OD490 Well 1: 0.6506
  OD490 Well 2: 0.6879
  OD490 Well 3: 0.6791
[2]; 0.5μM, third assay
  OD490 Mean: 0.6452
  OD490 Well 1: 0.6120
  OD490 Well 2: 0.6285
  OD490 Well 3: 0.6952
[2]; 1μM, second assay
  OD490 Mean: 0.6718
  OD490 Well 1: 0.6251
  OD490 Well 2: 0.6916
  OD490 Well 3: 0.6987
[2]; 1μM, third assay
  OD490 Mean: 0.6246
  OD490 Well 1: 0.6324
  OD490 Well 2: 0.6014
  OD490 Well 3: 0.6401
[2]; 10μM, first assay
  OD490 Mean: 0.6223
  OD490 Well 1: 0.6178
  OD490 Well 2: 0.6082
  OD490 Well 3: 0.6409
[2]; 10μM, second assay
  OD490 Mean: 0.6139
  OD490 Well 1: 0.6136
  OD490 Well 2: 0.6117
  OD490 Well 3: 0.6164
[2]; 10μM, third assay
  OD490 Mean: 0.6241
  OD490 Well 1: 0.5987
  OD490 Well 2: 0.6312
  OD490 Well 3: 0.6424
[2]; 25μM, first assay
  OD490 Mean: 0.5939
  OD490 Well 1: 0.5396
  OD490 Well 2: 0.5578
  OD490 Well 3: 0.6844
[2]; 25μM, second assay
  OD490 Mean: 0.5279
  OD490 Well 1: 0.4988
  OD490 Well 2: 0.5384
  OD490 Well 3: 0.5466
[2]; 25μM, third assay
  OD490 Mean: 0.5570
  OD490 Well 1: 0.5324
  OD490 Well 2: 0.5784
  OD490 Well 3: 0.5601
[2]; 50μM, first assay
  OD490 Mean: 0.5128
  OD490 Well 1: 0.5310
  OD490 Well 2: 0.5192
  OD490 Well 3: 0.4883
[2]; 50μM, second assay
  OD490 Mean: 0.5200
  OD490 Well 1: 0.5229
  OD490 Well 2: 0.564
  OD490 Well 3: 0.4732
[2]; 50μM, third assay
  OD490 Mean: 0.4713
  OD490 Well 1: 0.4985
  OD490 Well 2: 0.4532
  OD490 Well 3: 0.4621
[2]; 100μM, first assay
  OD490 Mean: 0.4642
  OD490 Well 1: 0.4537
  OD490 Well 2: 0.4965
  OD490 Well 3: 0.4424
[2]; 100μM, second assay
  OD490 Mean: 0.4817
  OD490 Well 1: 0.4326
  OD490 Well 2: 0.5246
  OD490 Well 3: 0.4878
[2]; 100μM, third assay
  OD490 Mean: 0.4653
  OD490 Well 1: 0.4632
  OD490 Well 2: 0.4397
  OD490 Well 3: 0.4930
[2]; MTS assay, 24 h exposure
  IC50: 103 µM
